Reference: US7625889B2, “Substituted bis aryl and heteroaryl compounds as selective 5HT2A antagonists” (Aventis Pharmaceuticals Inc., priority 2005, dated 2009)

Test system: newborn Sprague Dawley rats
Assay: Obstructive Sleep Apnea Studies (L-tryptophan plus pargyline)
Assay type: in vivo, rat
Protocol: Intraperitoneal application of L-tryptophan (10 mg/kg) and pargyline (50 mg/kg) to anaesthetized newborn rats depresses the amplitude of the inspiratory discharges of the genioglossal muscle and induces obstructive apneas (OA). The following procedure describes how to determine the efficacy of the compounds of this invention when compared with the efficacy of theophylline.
Experiments are carried out on newborn Sprague Dawley rats. The animals are anaesthetized by intraperitoneal injection of low doses of sodium pentobarbitone (7-10 mg/kg), kept lying (dorsal cubitus) on a warming blanket and are spontaneously ventilating.
The electromyogram (EMG) activity of the genioglossal muscles and the diaphragm are recorded with fine insulated wires (bipolar recordings) inserted within the muscles, filtered (100-3,000 Hz), amplified (×5-10,000) and integrated (time constant 50 ms). The rib cage movements are recorded via a captor gently touching the lower ribs and/or the abdominal wall. The air flow changes resulting from the respiratory chest movements are recorded via a facial mask and a highly sensitive pressure recorder. […]
Effects of theophylline pre-treatment on the occurrence of obstructive apneas induced by 1-tryptophan and pargyline injection are measured as follows: Five newborn rats receive theophylline at 10 mg/kg and 5 other animals receive theophylline at 30 mg/kg. […]

## Cn1c(=O)c2[nH]cnc2n(C)c1=O [theophylline]
Theophylline 10 or 30 mg/kg
  induction of OAs after L-Trp+Prg injection: not prevented
Theophylline pre-treatment 10 mg/kg or 30 mg/kg
  depression of amplitude of GG inspiratory discharges by L-Trp+Prg injection: not prevented
